Data published in PMC6199744, “Development of Chemical Proteomics for the Folateome and Analysis of the Kinetoplastid Folateome” (ACS Infectious Diseases, 2018).
Several values for one entry are separate records, joined by “and”; a condition that tells them apart may be missing. Identical values can stand only once. Like-named read-outs stand apart in the source and are kept apart here.

System: L. major lysate proteins
Assay: Multitargeted bead mixture chemoproteomics, single concentration competition, proteome-wide
Assay type: binding
Settings: for fold change / fold change relative to vehicle control: vehicle control = 1; for fold change relative to vehicle control: competition with free ligand

SMILES: CCCCCCOc1ccc(Cc2cnc(N)nc2N)cc1 [compound 1]
- fold change vs vehicle control: 0.96 and 1.16 and 1.02 and 0.84
- fold change (LINJ.05.0500 ATPASE ALPHA SUBUNIT): 1.04
- fold change (LINJ.36.4570 PROTEASOME REGULATORY ATPASE SUBUNIT): 0.72
- fold change (LMJF.10.0510 GLYCEROL-3-PHOSPHATE DEHYDROGENASE NAD ], GLYCOSOMAL): 0.92
- fold change (LMJF.16.1610 PROHIBITIN): 1.18
- fold change (LMJF.18.1370 HEAT SHOCK PROTEIN, PUTATIVE): 0.95
- fold change (LMJF.19.0300 RNA BINDING PROTEIN, PUTATIVE): 0.89
- fold change (LMJF.21.0760 […]-ATP-ASE SUBUNIT 5, PUTATIVE): 0.7
- fold change (LMJF.22.0410 HYPOTHETICAL PROTEIN, CONSERVED): 0.84
- fold change (LMJF.25.1770 ENOYL-COA REDUCTASE, PUTATIVE): 0.98
- fold change (LMJF.26.0300 AMINOPEPTIDASE-LIKE PROTEIN): 0.77
- fold change (LMJF.26.2560 HYPOTHETICAL PROTEIN, CONSERVED): 0.82
- fold change (LMJF.27.1810 GLYCOSOMAL PHOSPHOENOLPYRUVATE CARBOXYKINASE, PUTATIVE): 1.05
- fold change (LMJF.28.0490 PROPIONYL-COA CARBOXYLASE BETA CHAIN, PUTATIVE): 0.7
- fold change (LMJF.29.0940 HY[…], CONSERVED): 1.06
- fold change (LMJF.29.1310 CARNITINE/CHOLINE ACETYLTRANSFERASE, PUTATIVE): 0.99
- fold change (LMJF.29.1470 HYPOTHETICAL PROTEIN, CONSERVED): 0.73
- fold change (LMJF.29.2440 HYPOTHETICAL PROTEIN, CONSERVED): 0.88
- fold change (LMJF.30.2350 SPHINGOSINE 1-PHOSPHATE LYASE): 1.13
- fold change (LMJF.30.2970 GLYCERALDEHYDE 3-PHOSPHATE DEHYDROGENASE, GLYCOSOMAL): 1.09
- fold change (LMJF.30.3390 CAS/CSE/IMPORTIN DOMAIN PROTEIN, PUTATIVE): 0.85
- fold change (LMJF.31.2650 ACETOIN DEHYDROGENASE E3 COMPONENT-LIKE PROTEIN): 0.92
- fold change (LMJF.31.2970 ACETYL-COA CARBOXYLASE, PUTATIVE): 0.96
- fold change (LMJF.33.1030 HYPOTHETICAL PROTEIN, CONSERVED): 0.85
- fold change (LMJF.33.1930 PHOSPHORIBOSYLPYROPHOSPHATE SYNTHETASE, PUTATIVE): 0.91
- fold change (LMJF.35.5040 polyadenylate-binding protein 1): 0.93
- fold change (LMJF.35.5250 ALPHA-1,2-MANNOSYLTRANSFERASE, PUTATIVE): 0.88
- fold change (LMJF.36.5100 HYPOTHETICAL PROTEIN, CONSERVED): 0.89
- fold change (LMJF.[…] RIBOSOMAL PROTEIN S7, PUTATIVE): 1.43
- fold change vs vehicle control (protein LINJ.03.0940 HY[…], CONSERVED): 1.24
- fold change vs vehicle control (protein LINJ.09.0030 HYPOTHETICAL PROTEIN, CONSERVED): 0.98
- fold change relative to vehicle control (protein LINJ.11.0780 40S RIBOSOMAL PROTEIN S21, PUTATIVE): 1.29
- fold change (protein LINJ.13.0990 PROTEASOME REGULATORY ATPASE SUBUNIT 2, PUTATIVE): 0.79
- fold change vs vehicle control (protein LINJ.13.1460 ALPHA TUBULIN): 1
- fold change (protein LINJ.15.0090 HEAT SHOCK PROTEIN HSLVU, ATPASE SUBUNIT HSLU, PUTATIVE): 0.97
- fold change relative to vehicle control (protein LINJ.16.1380 […], PUTATIVE): 1.55
- fold change vs vehicle control (protein LINJ.19.0300 RNA BINDING PROTEIN): 1.16
- fold change relative to vehicle control (protein LINJ.20.1390 COATOMER BETA SUBUNIT, PUTATIVE): 1.01
- fold change vs vehicle control (protein LINJ.21.1310 40S RIBOSOMAL PROTEIN S23, PUTATIVE): 1.08
- fold change vs vehicle control (protein LINJ.23.1680 HYPOTHETICAL PROTEIN, CONSERVED): 0.98
- fold change vs vehicle control (protein LINJ.25.1170 […] OXIDASE VII, PUTATIVE): 1.03
- fold change relative to vehicle control (protein LINJ.25.1220 RIBOSOMAL PROTEIN S25): 1.36
- fold change vs vehicle control (protein LINJ.26.1080 HY[…], CONSERVED): 1.09
- fold change vs vehicle control (protein LINJ.27.1140 HYPOTHETICAL PROTEIN, CONSERVED): 0.97
- fold change vs vehicle control (protein LINJ.28.1100 RIBOSOMAL PROTEIN S20, PUTATIVE): 1
- fold change relative to vehicle control (protein LINJ.28.1940 REPLICATION FACTOR A, 51KDA SUBUNIT, PUTATIVE): 1.2
- fold change (protein LINJ.31.2350 ADP-RI[…], PUTATIVE): 1.13
- fold change vs vehicle control (protein LINJ.34.0670 PROTEASOME REGULATORY NON-ATP-ASE SUBUNIT 11, PUTATIVE): 0.97
- fold change (protein LINJ.35.0410 40S RIBOSOMAL PROTEIN S3A, PUTATIVE): 1.07
- fold change relative to vehicle control (protein LINJ.35.0780 CBS DOMAIN PROTEIN, CONSERVED): 1.21
- fold change vs vehicle control (protein LINJ.36.0510 HY[…], CONSERVED): 1.03
- fold change vs vehicle control (protein LINJ.36.3940 40S RIBOSOMAL PROTEIN S27-1, PUTATIVE): 0.91
- fold change (protein LINJ.36.4180 HS1VU COMPLEX PROTEOLYTIC SUBUNIT-LIKE): 0.81
- fold change (protein LINJ.36.7350 CYTOCHROME C OXIDASE SUBUNIT I): 0.96
- fold change (protein LMJF.01.0520 LONG-CHAIN-FATTY-ACID-COA LIGASE, PUTATIVE): 0.59
- fold change vs vehicle control (protein LMJF.02.0460 HYPOTHETICAL PROTEIN, CONSERVED): 0.96
- fold change vs vehicle control (protein LMJF.03.0230 LONG CHAIN FATTY ACYL COA SYNTHETASE, PUTATIVE): 1.11
- fold change vs vehicle control (protein LMJF.03.0630 HYPOTHETICAL PROTEIN, CONSERVED): 0.95
- fold change (protein LMJF.05.0780 HY[…], CONSERVED): 1.17
- fold change (protein LMJF.06.0010 HISTONE H4): 1.14
- fold change (protein LMJF.06.0140 PROTEASOME BETA 6 SUBUNIT, PUTATIVE): 0.8
- fold change (protein LMJF.06.0650 LANOSTEROL SYNTHASE, PUTATIVE): 0.88
- fold change vs vehicle control (protein LMJF.08.0510 RIBOSE-PHOSPHATE PYROPHOSPHOKINASE, PUTATIVE): 1.04
- fold change vs vehicle control (protein LMJF.08.0550 TRANSLATION INITIATION FACTOR-LIKE PROTEIN): 1.1
- fold change vs vehicle control (protein LMJF.08.1100 HY[…], CONSERVED): 1.01
- fold change relative to vehicle control (protein LMJF.09.1120 MIT[…] BINDING PROTEIN 2,MRP2, GBP25): 1.17
- fold change vs vehicle control (protein LMJF.09.1260 HY[…], CONSERVED): 1.16
- fold change (protein LMJF.10.1010 NUCLEOSIDE PHOSPHORYLASE-LIKE PROTEIN): 0.72
- fold change (protein LMJF.10.1240 HYPOTHETICAL PROTEIN, CONSERVED): 0.8
- fold change vs vehicle control (protein LMJF.11.0130 NGG1 I[…] 3-LIKE PROTEIN): 0.99
- fold change vs vehicle control (protein LMJF.11.0240 […] 7 SUBUNIT, PUTATIVE): 1.03
- fold change (protein LMJF.11.1050 PRETRA[…], ALPHA SUBUNIT, PUTATIVE): 1.11
- fold change vs vehicle control (protein LMJF.11.1110 60S RIBOSOMAL PROTEIN L28, PUTATIVE): 1.29
- fold change vs vehicle control (protein LMJF.12.0210 […] […]1L8 3, PUTATIVE): 1.04
- fold change vs vehicle control (protein LMJF.12.0280 ORNITHINE DECARBOXYLASE, PUTATIVE): 0.98
- fold change vs vehicle control (protein LMJF.13.0450 HYPOTHETICAL PROTEIN, CONSERVED): 0.99
- fold change vs vehicle control (protein LMJF.13.0870 MITOCHONDRIAL PROCESSING PEPTIDASE ALPHA SUBUNIT, PUTATIVE): 0.94
- fold change vs vehicle control (protein LMJF.14.0130 INOSINE-GUANINE NUCLEOSIDE HYDROLASE, PUTATIVE): 0.91
- fold change (protein LMJF.14.0310 […] 3 SUBUNIT, PUTATIVE): 1.01
- fold change (protein LMJF.14.0650 FATTY ACID ELONGASE, PUTATIVE): 0.96
- fold change (protein LMJF.14.0660 FATTY ACID ELONGASE, PUTATIVE): 1.11
- fold change (protein LMJF.14.0705 FATTY ACID ELONGASE, PUTATIVE): 1.02
- fold change (protein LMJF.14.0740 FATTY ACID ELONGASE, PUTATIVE): 1.2
- fold change relative to vehicle control (protein LMJF.14.1120 KINESIN K39, PUTATIVE): 1.45
- fold change vs vehicle control (protein LMJF.15.0230 LYSYL-TRNA SYNTHETASE, PUTATIVE): 1.07
- fold change vs vehicle control (protein LMJF.15.0280 RIBONUCLEOPROTEIN P18, MIT[…], PUTATIVE): 1.04
- fold change (protein LMJF.15.1010 GLUTAMATE DEHYDROGENASE): 1.09
- fold change relative to vehicle control (protein LMJF.16.0520 HYPOTHETICAL PROTEIN, CONSERVED): 2.54
- fold change (protein LMJF.16.0540 ASPARTATE CARBAMOYLTRANSFERASE, PUTATIVE): 0.89
- fold change vs vehicle control (protein LMJF.16.0950 SUCROSE-PHOSPHATE SYNTHASE-LIKE PROTEIN): 0.99
- fold change vs vehicle control (protein LMJF.16.0960 HYPOTHETICAL PROTEIN, CONSERVED): 0.44
- fold change (protein LMJF.16.1180 COATOMER DELTA SUBUNIT-LIKE PROTEIN): 0.87
- fold change (protein LMJF.17.0010 HYPOTHETICAL PROTEIN, CONSERVED): 0.88
- fold change vs vehicle control (protein LMJF.18.0510 ACONITASE, PUTATIVE): 0.98
- fold change vs vehicle control (protein LMJF.18.0890 RAB7 GTP BINDING PROTEIN, PUTATIVE): 0.94
- fold change (protein LMJF.18.1130 RAS-RELATED PROTEIN RAB-5, PUTATIVE): 0.85
- fold change (protein LMJF.19.1120 PROTEASOME REGULATORY NON-ATP-ASE SUBUNIT, PUTATIVE): 0.9
- fold change vs vehicle control (protein LMJF.19.1160 HYPOTHETICAL PROTEIN, CONSERVED): 0.83
- fold change vs vehicle control (protein LMJF.19.1530 PEPTIDYLPROLYL ISOMERASE-LIKE PROTEIN): 0.94
- fold change (protein LMJF.20.0100 PHOSPH[…] C, GLYCOSOMAL): 1.04
- fold change vs vehicle control (protein LMJF.21.0720 HY[…], CONSERVED): 1.05
- fold change (protein LMJF.21.1250 ADENYLATE KINASE, PUTATIVE): 0.98
- fold change (protein LMJF.21.1555 HY[…], CONSERVED): 1.01
- fold change (protein LMJF.21.1580 HY[…], UNKNOWN FUNCTION): 1.03
- fold change vs vehicle control (protein LMJF.21.1700 […] 2 SUBUNIT, PUTATIVE): 0.89
- fold change (protein LMJF.22.0230 AMINO ACID PERMEASE, PUTATIVE): 1.2
- fold change vs vehicle control (protein LMJF.22.0730 HYPOTHETICAL PROTEIN, CONSERVED): 1
